Consider 22 molecules from PubChem BioAssay AID192 (DTP/NCI, 2004).

Where “and” joins values, the source holds several entries; their conditions need not be identical. Identical values can stand only once. Inconclusive results and toxic doses are left out.

The assay deals with BDF1 mice, B16 melanoma ip, median survival T/C. As to the kind of experiment: NCI In Vivo Anticancer Drug Screen. Data for tumor model B16 Melanoma (intraperitoneal) in B6D2F1 (BDF1) mice. As to conditions: endpoint: median survival time, higher = longer survival. An outline of the steps: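 Tumor-bearing mice received test compound or vehicle. Survival or tumor size was then measured in both groups. The treated-group figure was divided by the control-group figure.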

Where [1] appears, read: dose: 25.0 mg/kg/injection, schedule: Q01DX009 (ip), vehicle: saline with Tween-80.
Setting [2] is: dose: 50.0 mg/kg/injection, schedule: Q01DX009 (ip), vehicle: saline with Tween-80.
[3] abbreviates: dose: 100.0 mg/kg/injection, schedule: Q01DX009 (ip), vehicle: saline with Tween-80.
The mark [4] stands for this setting: dose: 6.25 mg/kg/injection, schedule: Q01DX009 (ip), vehicle: Klucel (hydroxypropylcellulose) (HPC).
Where [5] appears, read: dose: 12.5 mg/kg/injection, schedule: Q01DX009 (ip), vehicle: Klucel (hydroxypropylcellulose) (HPC).
Setting [6] is: dose: 25.0 mg/kg/injection, schedule: Q01DX009 (ip), vehicle: Klucel (hydroxypropylcellulose) (HPC).
The mark [7] stands for this setting: dose: 50.0 mg/kg/injection, schedule: Q01DX009 (ip), vehicle: Klucel (hydroxypropylcellulose) (HPC).
Setting [8] is: dose: 100.0 mg/kg/injection, schedule: Q01DX009 (ip), vehicle: Klucel (hydroxypropylcellulose) (HPC).
Where [9] appears, read: dose: 200.0 mg/kg/injection, schedule: Q01DX009 (ip), vehicle: Klucel (hydroxypropylcellulose) (HPC).
[10] abbreviates: dose: 400.0 mg/kg/injection, schedule: Q01DX009 (ip), vehicle: Klucel (hydroxypropylcellulose) (HPC).
Where [11] appears, read: dose: 50.0 mg/kg/injection, schedule: Q01DX009 (ip), vehicle: saline.
[12] abbreviates: dose: 3.12 mg/kg/injection, schedule: Q01DX009 (ip), vehicle: saline.
Setting [13] is: dose: 6.25 mg/kg/injection, schedule: Q01DX009 (ip), vehicle: saline.
Setting [14] is: dose: 12.5 mg/kg/injection, schedule: Q01DX009 (ip), vehicle: saline.
Where [15] appears, read: dose: 25.0 mg/kg/injection, schedule: Q01DX009 (ip), vehicle: saline.
The mark [16] stands for this setting: dose: 100.0 mg/kg/injection, schedule: Q04DX003 (ip), vehicle: Klucel (hydroxypropylcellulose) (HPC).
The mark [17] stands for this setting: dose: 200.0 mg/kg/injection, schedule: Q04DX003 (ip), vehicle: Klucel (hydroxypropylcellulose) (HPC).
Setting [18] is: dose: 400.0 mg/kg/injection, schedule: Q04DX003 (ip), vehicle: Klucel (hydroxypropylcellulose) (HPC).

For `CCCC(=O)OCc1ccc(Cl)c(Cl)c1`, the T/C by setting is: (dose: 16.5 mg/kg/injection, schedule: Q04DX003 (ip), vehicle: saline with Tween-80) 91 % of control; under setting [1], 93 % of control; (dose: 25.0 mg/kg/injection, schedule: Q04DX003 (ip), vehicle: saline with Tween-80) 102 % of control; (dose: 37.5 mg/kg/injection, schedule: Q04DX003 (ip), vehicle: saline with Tween-80) 102 % of control; under setting [2], 97 % of control; (dose: 50.0 mg/kg/injection, schedule: Q04DX003 (ip), vehicle: saline with Tween-80) 118 % of control. Besides, the T/C by setting is: under setting [3], 100 % of control; (dose: 100.0 mg/kg/injection, schedule: Q04DX003 (ip), vehicle: saline with Tween-80) 123 % of control.
As for `N#CCC(=O)O`, the T/C (dose: 18.75 mg/kg/injection, schedule: Q01DX009 (ip), vehicle: saline) is 109 % of control and the T/C (dose: 37.5 mg/kg/injection, schedule: Q01DX009 (ip), vehicle: saline) is 97 % of control.
With `C#CCOCC1CO1` (stereo not given), the T/C by setting is: under setting [2], 97 % of control; under setting [3], 91 % of control.
`O=c1[nH]c2ccccc2n1C1CCN(CCCC(c2ccc(F)cc2)c2ccc(F)cc2)CC1`: the T/C is 102 % of control (dose: 1.56 mg/kg/injection, schedule: Q01DX009 (ip), vehicle: Klucel (hydroxypropylcellulose) (HPC)); 100 % of control (dose: 3.12 mg/kg/injection, schedule: Q01DX009 (ip), vehicle: Klucel (hydroxypropylcellulose) (HPC)); 100 % of control under setting [4]; 94 % of control under setting [5]; 105 % of control under setting [6]; 87 % of control under setting [7]. Besides, the T/C under setting [8] is 87 % of control.
Turning to `COc1ccc(Cl)cc1NC(=O)CC(C)=O`, the T/C runs as follows: under setting [8], 100 % of control; under setting [9], 93 % of control; under setting [10], 96 % of control.
On to `C[Si](C)(C)Cc1ccccc1`, for which the T/C was 114 % of control under setting [8] and 109 % of control under setting [9].
In the case of `CC(=O)NC(Cc1ccc(N(CCCl)CCCl)cc1)C(=O)O` (stereo not given), the T/C runs as follows: (dose: 3.13 mg/kg/injection, schedule: Q01DX009 (ip), vehicle: saline with Tween-80) 109 % of control; (dose: 6.25 mg/kg/injection, schedule: Q01DX009 (ip), vehicle: saline with Tween-80) 117 % of control; under setting [1], 113 % of control.
On to `NC(=O)C(CC(=O)OCc1ccccc1)NC(=O)OCc1ccccc1` (stereo not given), for which the T/C is 118 % of control under setting [8], 107 % of control under setting [9] and 113 % of control under setting [10].
With `O=[N+]([O-])O.[Ga]`, the T/C by setting is: under setting [11], 102 % of control; (dose: 100.0 mg/kg/injection, schedule: Q01DX009 (ip), vehicle: saline) 92 % of control.
As for `CC(C)N(CCCC#N)C(C)C`, the T/C is 91 % of control under setting [1], 102 % of control under setting [2] and 100 % of control under setting [3].
For the molecule `CC(=O)Oc1ccccc1C(=O)O`, the T/C runs as follows: (dose: 15.7 mg/kg/injection, schedule: Q01DX009 (ip), vehicle: saline with Tween-80) 86 % of control; (dose: 31.3 mg/kg/injection, schedule: Q01DX009 (ip), vehicle: saline with Tween-80) 102 % of control; (dose: 62.5 mg/kg/injection, schedule: Q01DX009 (ip), vehicle: saline with Tween-80) 97 % of control.
Turning to `CN(C)CCC1(c2ccccc2)C=Cc2ccccc21` (stereo not given), the T/C was 108 % of control under setting [12], 102 % of control under setting [13], 108 % of control under setting [14] and 95 % of control under setting [15].
Regarding `O=C1NC(c2ccccc2)C(=O)N1CCN(CCCl)CCCl` (stereo not given), the T/C runs as follows: (dose: 1.56 mg/kg/injection, schedule: Q01DX009 (ip), vehicle: saline) 89 % of control and 109 % of control; under setting [12], 95 % of control and 114 % of control; under setting [13], 123 % of control; under setting [15], 115 % of control.
Take `CN(C)N=Nc1c(Cl)cccc1Cl`: the T/C (dose: 18.75 mg/kg/injection, schedule: Q01DX009 (ip), vehicle: Klucel (hydroxypropylcellulose) (HPC)) was 101 % of control and the T/C (dose: 37.5 mg/kg/injection, schedule: Q01DX009 (ip), vehicle: Klucel (hydroxypropylcellulose) (HPC)) is 105 % of control.
Take `Cc1cc(NS(=O)(=O)c2ccccc2)c2c(c1NS(=O)(=O)c1ccccc1)CC=CC2`: the T/C was 97 % of control under setting [16], 94 % of control under setting [17] and 86 % of control under setting [18].
Take `CC(=O)[O][Pb]([O]C(C)=O)([c]1ccccc1)[c]1ccccc1`: the T/C by setting is: under setting [4], 98 % of control; under setting [5], 99 % of control; under setting [6], 103 % of control; under setting [7], 95 % of control.
`CN1CCC=C(C(=O)N2c3ccccc3Sc3ccccc32)C1`: the T/C is 102 % of control under setting [15] and 96 % of control under setting [11].
On to `C1CCc2nnnn2CC1`, for which the T/C (dose: 1.56 mg/kg/injection, schedule: Q04DX003 (ip), vehicle: saline) was 111 % of control; the T/C under setting [12] was 113 % of control; the T/C (dose: 3.12 mg/kg/injection, schedule: Q04DX003 (ip), vehicle: saline) was 110 % of control; the T/C under setting [13] was 102 % of control; the T/C (dose: 6.25 mg/kg/injection, schedule: Q04DX003 (ip), vehicle: saline) is 106 % of control; the T/C under setting [14] was 102 % of control. The T/C runs as follows: (dose: 12.5 mg/kg/injection, schedule: Q04DX003 (ip), vehicle: saline) 103 % of control; under setting [15], 88 % of control; (dose: 25.0 mg/kg/injection, schedule: Q04DX003 (ip), vehicle: saline) 103 % of control and 111 % of control; (dose: 50.0 mg/kg/injection, schedule: Q04DX003 (ip), vehicle: saline) 105 % of control.
As for `Cc1ccc(NC(=S)NN)cc1C`, the T/C is 100 % of control under setting [6], 96 % of control under setting [7] and 96 % of control under setting [8].
`COc1cccc(CN(C)CCC(=O)O)c1`: the T/C is, setting by setting: under setting [16], 104 % of control; under setting [17], 102 % of control; under setting [18], 101 % of control.
In the case of `CCC(C)C1NC(=O)C(NC(=O)c2c3nc4c(C(=O)NC5C(=O)NC(C(C)CC)C(=O)N6CCCC6C(=O)N(C)CC(=O)N(C)C(C(C)C)C(=O)OC5C)ccc(C)c4oc-3c(C)c(=O)c2Cl)C(C)OC(=O)C(C(C)C)N(C)C(=O)CN(C)C(=O)C2CCCN2C1=O` (stereo not given), the T/C is 117 % of control (dose: 1.25 mg/kg/injection, schedule: Q01DX009 (ip), vehicle: Klucel (hydroxypropylcellulose) (HPC)) and 164 % of control (dose: 10.0 mg/kg/injection, schedule: Q01DX009 (ip), vehicle: Klucel (hydroxypropylcellulose) (HPC)).
Consider `CCC1=C[C@H]2CN(CCc3c([nH]c4ccccc34)[C@@](C(=O)OC)(c3cc4c(cc3OC)N(C)[C@H]3[C@@](O)(C(=O)NC)[C@H](OC(C)=O)[C@]5(CC)C=CCN6CC[C@]43[C@@H]65)C2)C1`, for which the T/C is 119 % of control (dose: 0.05 mg/kg/injection, schedule: Q01DX009 (ip), vehicle: Klucel (hydroxypropylcellulose) (HPC)); 156 % of control (dose: 0.06 mg/kg/injection, schedule: Q01DX009 (ip), vehicle: water); 113 % of control (dose: 0.1 mg/kg/injection, schedule: Q01DX009 (ip), vehicle: Klucel (hydroxypropylcellulose) (HPC)); 160 % of control and 183 % of control (dose: 0.12 mg/kg/injection, schedule: Q01DX009 (ip), vehicle: water); 123 % of control (dose: 0.12 mg/kg/injection, schedule: Q04DX003 (ip), vehicle: water); 124 % of control (dose: 0.2 mg/kg/injection, schedule: Q01DX009 (ip), vehicle: Klucel (hydroxypropylcellulose) (HPC)). Further, the T/C reads like this: (dose: 0.25 mg/kg/injection, schedule: Q01DX009 (ip), vehicle: water) 181 % of control and 220 % of control; (dose: 0.5 mg/kg/injection, schedule: Q01DX009 (ip), vehicle: water) 157 % of control; (dose: 0.5 mg/kg/injection, schedule: Q04DX003 (ip), vehicle: water) 156 % of control; (dose: 1.6 mg/kg/injection, schedule: Q01DX009 (ip), vehicle: Klucel (hydroxypropylcellulose) (HPC)) 181 % of control.
